Reference: the supplement of paper PMC10307832

Assays:
Experiment in all cases: relative viability (nuclei count vs DMSO), 5 days (fraction); higher = more cells survive
[1] = test system: COR-L23
Method in brief: (§1)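 One day after seeding in 1536-well plates, lung cancer cell lines were dosed by pin tool. Dosing was either single-drug or a fixed anchor-drug dose plus five library-drug doses (not always all listed) in √10 steps. After 5 days, nuclei were stained in one fix-and-stain step and counted on 4× images, and relative viability is the nuclei count of treated wells over that of vehicle wells, given as the median of duplicate plates.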

[2] = test system: 201T
Method in brief: as §1

[3] = test system: HCC-44
Method in brief: as §1

[4] = test system: HCC-15
Method in brief: as §1

[5] = test system: NCI-H1650
Method in brief: as §1

[6] = test system: EKVX
Method in brief: as §1

[7] = test system: BEN
Method in brief: as §1

[8] = test system: A-427
Method in brief: as §1

[9] = test system: SW 900
Method in brief: as §1

[10] = test system: SK-MES-1
Method in brief: as §1

[11] = test system: NCI-H441
Method in brief: as §1

[12] = test system: HARA
Method in brief: as §1

[13] = test system: NCI-H650
Method in brief: as §1

[14] = test system: NCI-H596
Method in brief: as §1

[15] = test system: NCI-H23
Method in brief: as §1

[16] = test system: NCI-H358
Method in brief: as §1

[17] = test system: NCI-H2342
Method in brief: as §1

[18] = test system: HCC-827
Method in brief: as §1

[19] = test system: NCI-H838
Method in brief: as §1

[20] = test system: NCI-H1437
Method in brief: as §1

[21] = test system: NCI-H1975
Method in brief: as §1

In the case of `Nc1ccn([C@@H]2O[C@H](CO)[C@@H](O)[C@@H]2O)c(=O)n1` [Cytarabine] + Cc1cc(Nc2cc(N3CCN(C)CC3)nc(Sc3ccc(NC(=O)C4CC4)cc3)n2)n[nH]1 [Tozasertib] (partner 0.1 µM), the relative viability ([1]; first compound 0.005 µM) was 0.164, the relative viability ([1]; first compound 0.01581 µM) was 0.141 and the relative viability ([1]; first compound 0.05 µM) was 0.159. It also gave a relative viability ([1]; first compound 0.1581 µM) of 0.123, a relative viability ([1]; first compound 0.5 µM) of 0.129 and a relative viability ([2]; first compound 0.005 µM) of 0.886. For the same compound, the relative viability ([2]; first compound 0.01581 µM) was 0.944, the relative viability ([2]; first compound 0.05 µM) was 0.911 and the relative viability ([2]; first compound 0.1581 µM) was 0.837. For the same compound, the relative viability ([2]; first compound 0.5 µM) was 0.706, the relative viability ([3]; first compound 0.005 µM) was 0.925 and the relative viability ([3]; first compound 0.01581 µM) was 0.928. It also gave a relative viability ([3]; first compound 0.05 µM) of 0.418, a relative viability ([3]; first compound 0.1581 µM) of 0.379 and a relative viability ([3]; first compound 0.5 µM) of 0.255. The relative viability ([4]; first compound 0.005 µM) was 0.413, the relative viability ([4]; first compound 0.01581 µM) was 0.57 and the relative viability ([4]; first compound 0.05 µM) was 0.577. The relative viability ([4]; first compound 0.1581 µM) was 0.461, the relative viability ([4]; first compound 0.5 µM) was 0.354 and the relative viability ([5]; first compound 0.005 µM) was 0.294. The relative viability ([5]; first compound 0.01581 µM) was 0.33, the relative viability ([5]; first compound 0.05 µM) was 0.303 and the relative viability ([5]; first compound 0.1581 µM) was 0.26. For the same compound, the relative viability ([5]; first compound 0.5 µM) was 0.213, the relative viability ([6]; first compound 0.005 µM) was 0.326 and the relative viability ([6]; first compound 0.01581 µM) was 0.35. It also gave a relative viability ([6]; first compound 0.05 µM) of 0.333, a relative viability ([6]; first compound 0.1581 µM) of 0.272 and a relative viability ([6]; first compound 0.5 µM) of 0.19. For the same compound, the relative viability ([7]; first compound 0.005 µM) was 0.427, the relative viability ([7]; first compound 0.01581 µM) was 0.519 and the relative viability ([7]; first compound 0.05 µM) was 0.569. For the same compound, the relative viability ([7]; first compound 0.1581 µM) was 0.63, the relative viability ([7]; first compound 0.5 µM) was 0.563 and the relative viability ([8]; first compound 0.005 µM) was 0.232. The relative viability ([8]; first compound 0.01581 µM) was 0.212, the relative viability ([8]; first compound 0.05 µM) was 0.163 and the relative viability ([8]; first compound 0.1581 µM) was 0.161. It also gave a relative viability ([8]; first compound 0.5 µM) of 0.149, a relative viability ([9]; first compound 0.005 µM) of 0.555 and a relative viability ([9]; first compound 0.01581 µM) of 0.402. For the same compound, the relative viability ([9]; first compound 0.05 µM) was 0.287, the relative viability ([9]; first compound 0.1581 µM) was 0.233 and the relative viability ([9]; first compound 0.5 µM) was 0.134. It also gave a relative viability ([10]; first compound 0.005 µM) of 0.583, a relative viability ([10]; first compound 0.01581 µM) of 0.483 and a relative viability ([10]; first compound 0.05 µM) of 0.28. For the same compound, the relative viability ([10]; first compound 0.1581 µM) was 0.179, the relative viability ([10]; first compound 0.5 µM) was 0.159 and the relative viability ([11]; first compound 0.005 µM) was 0.557. It also gave a relative viability ([11]; first compound 0.01581 µM) of 0.637, a relative viability ([11]; first compound 0.05 µM) of 0.597 and a relative viability ([11]; first compound 0.1581 µM) of 0.389. For the same compound, the relative viability ([11]; first compound 0.5 µM) was 0.323, the relative viability ([12]; first compound 0.005 µM) was 0.102 and the relative viability ([12]; first compound 0.01581 µM) was 0.102. It also gave a relative viability ([12]; first compound 0.05 µM) of 0.0829, a relative viability ([12]; first compound 0.1581 µM) of 0.0658 and a relative viability ([12]; first compound 0.5 µM) of 0.0703. It also gave a relative viability ([13]; first compound 0.005 µM) of 0.595, a relative viability ([13]; first compound 0.01581 µM) of 0.513 and a relative viability ([13]; first compound 0.05 µM) of 0.34. For the same compound, the relative viability ([13]; first compound 0.1581 µM) was 0.249, the relative viability ([13]; first compound 0.5 µM) was 0.176 and the relative viability ([14]; first compound 0.005 µM) was 1.03. It also gave a relative viability ([14]; first compound 0.01581 µM) of 0.945, a relative viability ([14]; first compound 0.05 µM) of 0.712 and a relative viability ([14]; first compound 0.1581 µM) of 0.589. The relative viability ([14]; first compound 0.5 µM) was 0.469, the relative viability ([15]; first compound 0.005 µM) was 0.362 and the relative viability ([15]; first compound 0.01581 µM) was 0.32. For the same compound, the relative viability ([15]; first compound 0.05 µM) was 0.243, the relative viability ([15]; first compound 0.1581 µM) was 0.55 and the relative viability ([15]; first compound 0.5 µM) was 0.244. The relative viability ([16]; first compound 0.005 µM) was 0.102, the relative viability ([16]; first compound 0.01581 µM) was 0.0922 and the relative viability ([16]; first compound 0.05 µM) was 0.1. The relative viability ([16]; first compound 0.1581 µM) was 0.097, the relative viability ([16]; first compound 0.5 µM) was 0.0847 and the relative viability ([17]; first compound 0.005 µM) was 0.507. The relative viability ([17]; first compound 0.01581 µM) was 0.616, the relative viability ([17]; first compound 0.05 µM) was 0.496 and the relative viability ([17]; first compound 0.1581 µM) was 0.506. The relative viability ([17]; first compound 0.5 µM) was 0.459, the relative viability ([18]; first compound 0.005 µM) was 0.32 and the relative viability ([18]; first compound 0.01581 µM) was 0.282. For the same compound, the relative viability ([18]; first compound 0.05 µM) was 0.286, the relative viability ([18]; first compound 0.1581 µM) was 0.187 and the relative viability ([18]; first compound 0.5 µM) was 0.172. It also gave a relative viability ([19]; first compound 0.005 µM) of 0.29, a relative viability ([19]; first compound 0.01581 µM) of 0.319 and a relative viability ([19]; first compound 0.05 µM) of 0.231. The relative viability ([19]; first compound 0.1581 µM) was 0.231, the relative viability ([19]; first compound 0.5 µM) was 0.161 and the relative viability ([20]; first compound 0.005 µM) was 0.295. The relative viability ([20]; first compound 0.01581 µM) was 0.355, the relative viability ([20]; first compound 0.05 µM) was 0.365 and the relative viability ([20]; first compound 0.1581 µM) was 0.251. It also gave a relative viability ([20]; first compound 0.5 µM) of 0.175, a relative viability ([21]; first compound 0.005 µM) of 0.681 and a relative viability ([21]; first compound 0.01581 µM) of 0.799. For the same compound, the relative viability ([21]; first compound 0.05 µM) was 0.728, the relative viability ([21]; first compound 0.1581 µM) was 0.317 and the relative viability ([21]; first compound 0.5 µM) was 0.206.
